Measurements from ChEMBL document CHEMBL1287759, “Discovery of novel osthole derivatives as potential anti-breast cancer treatment” (Bioorg Med Chem Lett, 2010).

Assays:
[1] = tested on: MCF7; experiment: Anticancer activity against human MCF7 assessed as inhibition of cell growth by MTT assay; type: functional, cell-based
[2] = tested on: MDA-MB-231; experiment: Anticancer activity against human MDA-MB-231 assessed as inhibition of cell growth by MTT assay; type: functional, cell-based
[3] = tested on: HEK293; experiment: Cytotoxicity against human HEK293 assessed as inhibition of cell growth; type: cell-based

SMILES	IC50 [1] [µM]	IC50 [2] [µM]	Activity [3]
CC(C)CCc1c(O)ccc2cc(-c3ccc(OC(F)(F)F)cc3)c(=O)oc12	5.7	7.42	
COc1ccc2cc(-c3ccc(F)c(F)c3)c(=O)oc2c1CCC(C)C	27.3	33.6	
COc1ccc2c(Oc3ccc4cc(-c5ccc(C(F)(F)F)cc5)c(=O)oc4c3CCC(C)C)cc(=O)oc2c1	45.9	> 50	
COc1ccc2ccc(=O)oc2c1CCC(C)C	47	> 50	
COc1ccc2cc(-c3ccc(OC(F)(F)F)cc3)c(=O)oc2c1CCC(C)C	0.24	0.31	Non-toxic
COc1ccc2cc(-c3ccc(C(F)(F)F)cc3)c(=O)oc2c1CCC(C)C	24.5	38.1	
CC(C)CCc1c(O)ccc2cc(-c3ccc(C(F)(F)F)cc3)c(=O)oc12	42.9	> 50	
COc1ccc2ccc(=O)oc2c1CC=C(C)C [OSTHOLE]	25.8	30.2	
COc1ccc2c(Oc3ccc4ccc(=O)oc4c3CCC(C)C)cc(=O)oc2c1	> 50	> 50	
CC(C)CCc1c(Oc2cc(=O)oc3cc(O)ccc23)ccc2ccc(=O)oc12	> 50	> 50	
CC(C)CCc1c(O)ccc2ccc(=O)oc12	> 50	> 50	
COc1ccc2cc(-c3cccnc3)c(=O)oc2c1CCC(C)C	> 50	> 50	
COc1ccc2cc(-c3ccc(C)cc3)c(=O)oc2c1CCC(C)C	50.2	> 50	
COc1ccc(-c2cc3ccc(OC)c(CCC(C)C)c3oc2=O)cc1OC	51.6	> 50	
COc1ccc2cc(-c3ccc(Cl)cc3)c(=O)oc2c1CCC(C)C	1.27	5.23	Non-toxic
COc1ccc2cc(-c3ccc(F)cc3)c(=O)oc2c1CCC(C)C	52.6	> 50	
COc1ccc2cc(-c3ccc(O)cc3)c(=O)oc2c1CCC(C)C	3.23	4.15	
